Measured values reported in patent publication US20230057012A1, “TGFB INHIBITORS AND USE THEREOF” (Scholar Rock, Inc., priority 2020, published 2023).

Key:
non-diseased rat BAL = assay: TGFβ downstream tonic signaling in rat BAL; type: in vivo
From the text: Indeed, data presented herein support this notion. […] Preferably, TGFβ antagonists for use in the treatment of such conditions exert their inhibitory activities only towards the disease-induced or disease-associated isoform, while preserving the function of the other isoforms that are normally expressed to mediate tonic signaling in the tissue. […] Alternatively or additionally, agents that target and block integrin-dependent activation of TGFβ may be capable of blocking only a subset of integrins responsible for disease-associated TGFβ1 activation, among numerous integrin types that are expressed by various cell types and play a role in the pathogenesis. Furthermore, even where such antagonists may selectively block integrin-mediated activation of the TGFβ1 isoform, it may be ineffective in blocking TGFβ1 activation triggered by other modes, such as protease-dependent activation. By contrast, the isoform-specific, inhibitors of TGFβ1 such as those described herein are aimed to prevent the activation step of TGFβ1 regardless of the particular mode of activation, while maintaining isoform selectivity. Preferably, the isoform-selective activation inhibitor of TGFβ1 is Ab46 or an engineered molecule comprising an antigen-binding fragment thereof.

[1] = test system: Female Fischer344 rats or Sprague Dawley (SD) rats; settings: rat, in vivo
Protocol: Animals receiving LY2109761 were dosed by oral gavage once daily for five or seven days. Animals were sacrificed and necropsies performed.

Human = settings: in vivo; cited from earlier work

Compound	TGFβ downstream tonic signaling (non-diseased rat BAL)	bone findings [1]	Half-life (Human)	previously reported adverse events in human patients (Human)
c1ccc(-c2nn3c(c2-c2ccnc4cc(OCCN5CCOCC5)ccc24)CCC3)nc1 [LY2109761]	inhibit TGFβ downstream tonic signaling	macroscopic abnormally shaped sternum and microscopic increased thickness of the hypertrophic zone in the endplate of the sternum and physis of the femur and tibia	–	–
GC1008: human analog of 1D11, pan-TGFβ antibody	–	–	Half-life: 21.7 d	leukocytosis (grade 3), fatigue (grade 3), hypoxia (grade 3), asystole (grade 5), leukopenia (grade 1), recurrent, transient, tender erythematous, nodular skin lesions, suppurative dermatitis, and herpes zoster
